Results as given in patent US20240261243A1, “NITRIC OXIDE DONORS, COMPOSITIONS, AND METHODS OF USE” (priority 2020, published 2024).
Where “and” joins values, the source holds several entries; their conditions need not be identical. Equal values may be shown once.

What was measured:
P. aeruginosa strains = experiment: MIC/MBC of BIOC76 and gallium citrate alone against 21 strains; assay type: cell-based, Pseudomonas aeruginosa; details: for MBC Rep 1 / MIC Rep 1: alone
Source text: Determined the MIC of each test article individually against the strains being tested using the CLSI MIC/MBC method.
In this study, we established the MIC/MiBC's of BIOC76 and gallium citrate alone against each of 21 P. aeruginosa strains. […] The activity of both compounds is also strain-dependent. The results are as follows (the species for each strain is Pseudomonas aeruginosa: […]

P. aeruginosa (PAK) = experiment: Combination MIC/MBC assay, BIOC76 with fixed gallium citrate; assay type: cell-based, Pseudomonas aeruginosa; details: PAK; alone
Description: Combination MIC/MBC assays are useful when you want to look at only a few concentrations of one compound (Gallium citrate) combined with many concentrations of the second compound (BIOC76).
This method also allows us to see the change in both the MIC and MBC of a drug when in combination with another drug. Checkerboard assays only allow us to see changes in the MIC's.
Test articles are added to a 96-well plate so that when a 2× bacterial culture (prepared to 10^6 CFU/ml) is added, the final concentration in all wells was 1×.
All test articles are prepared at 4×→diluted 1:1 when other TA is added (2×) and diluted 1:1 again to 1× when bacteria are added.
TA #1 (Gallium citrate) is prepared and added to entire rows of a plate at a single concentration.
TA #2 (BIOC76) in then prepared and serially diluted in TA #1, so there are 2-fold dilutions of TA #2 combined with a single concentration of TA #1.
Plates were incubated at 37° C. for 18-24 h.
The ΔMIC/IBC is used to show the change in the MIC/IBC of BIOC76 when in combination with Gallium citrate (compared to when BIOC76 is used alone).
ΔMIC/MBC is the fold-decrease in BIOC76 concentration as a result of the combination.
We concluded BIOC76 and gallium citrate maintain synergistic activity so long as the gallium concentration is at least about 0.005 to about 0.02 mg/ml. In this experimental, we set up MIC/MBC assay and serially diluted BIOC76 in rows with fixed concentrations of gallium citrate. […] The results are shown in FIG. 6, and in the following tables: […]

[1] = NO release half-life of diazeniumdiolate NO donors in aqueous media at pH 7.4; assay type: physicochemical
Source text: The rate of nitric oxide release from diazeniumdiolates can be controlled using a variety of structural features.

P. aeruginosa biofilms = experiment: Biofilm eradication (MBEC) on peg lid
[2] = target: angiotensin-converting enzyme 2 (ACE2) (Homo sapiens, UniProt Q9BYF1); details: ACE2 inhibitor from foodstuffs; cited from earlier work
[3] = N-methyl amine; cited from earlier work
[4] = NO storage and release measurement (chemiluminescence nitric oxide analyzer); assay type: physicochemical
Description: N-diazeniumdiolates NO scaffolds are pH-triggered NO-release donors. Reacting with proton in the physiological condition (e.g., 37° C., pH 7.4), 1 mole of N-diazeniumdiolate regenerates 1 mole of the parent secondary amine compounds and two moles of NO radicals. The real-time detection of NO was performed by using a chemiluminescence-based nitric oxide analyzer (NOA). The total NO storage and dissociation kinetics of water-soluble NO Donors were measured in physiological condition (pH 7.40, 37° C.). The resulting NO-release parameters (e.g., total NO storage, half-life of NO release, maximum flux, and conversion efficiency) were evaluated for suitability as a pharmaceutical product.
Transfer the solution into the high-pressure vessel and purge the headspace with nitrogen. Mix the solution and set nitric oxide pressure to 25 bar (temp 20° C.). Allow the reaction to run for minimum of 3 days. Stop the reaction by venting the NO. Precipitate the reaction product in acetone (10:1 acetone:reaction mixture). Filter the precipitate and vacuum dry.
We sought to determine whether an NO donor and gallium nitrate have antimicrobial synergy against a lab strain of P. aeruginosa (PAK). The Checkerboard assay (described herein) was used with a hepta-substituted cyclodextrin-based NO donor (hereinafter referred to as BIOC76) having approximately ˜4.7 μmol NO/mg dry powder.

[5] = PAK (N0049), 3-log reduction in biofilm

angiotensin-converting enzyme 2 (ACE2), sequence (Q9BYF1 18-805): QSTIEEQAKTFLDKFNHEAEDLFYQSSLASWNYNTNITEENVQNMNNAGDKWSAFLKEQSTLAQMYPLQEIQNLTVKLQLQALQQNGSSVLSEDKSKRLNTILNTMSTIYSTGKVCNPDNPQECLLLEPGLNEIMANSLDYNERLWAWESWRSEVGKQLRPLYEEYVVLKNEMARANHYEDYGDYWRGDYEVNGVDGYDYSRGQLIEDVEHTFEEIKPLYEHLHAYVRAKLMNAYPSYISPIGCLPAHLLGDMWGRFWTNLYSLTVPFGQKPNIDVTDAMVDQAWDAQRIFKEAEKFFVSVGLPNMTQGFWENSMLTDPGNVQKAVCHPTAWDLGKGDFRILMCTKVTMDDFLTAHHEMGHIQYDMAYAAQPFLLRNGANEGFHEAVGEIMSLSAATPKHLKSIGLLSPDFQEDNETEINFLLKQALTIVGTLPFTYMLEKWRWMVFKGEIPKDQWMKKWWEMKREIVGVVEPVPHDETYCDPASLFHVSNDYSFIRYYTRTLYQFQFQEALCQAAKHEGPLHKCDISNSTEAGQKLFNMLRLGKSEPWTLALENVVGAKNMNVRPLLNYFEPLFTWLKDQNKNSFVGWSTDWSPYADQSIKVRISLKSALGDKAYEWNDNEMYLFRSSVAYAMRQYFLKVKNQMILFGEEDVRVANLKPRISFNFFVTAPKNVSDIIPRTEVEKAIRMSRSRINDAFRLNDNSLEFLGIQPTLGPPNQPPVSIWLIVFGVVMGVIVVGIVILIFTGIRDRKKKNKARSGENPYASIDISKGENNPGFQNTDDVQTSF
Description for P. aeruginosa strain PAK: All test articles are prepared at 4×→diluted 1:1 when other TA is added (2×), and diluted 1:1 again to 1× when bacteria are added
Experimental Design: The MIC of BIOC76 and Gallium nitrate individually, then set up a checkerboard assay testing 49 combinations of BIOC76 and Gallium nitrate concentrations against 10^6 CFU/ml P. aeruginosa strain PAK. Plates were incubated at 37° C. for 18-24 h, and growth was assessed visually.

Which results are given for O=C([O-])CC(O)(CC(=O)[O-])C(=O)[O-].[Ga+3] [Gallium citrate, gallium citrate, reference compound]?
killing of P. aeruginosa strains (conclusion) (P. aeruginosa strains; 21 P. aeruginosa strains): does not kill any strain of P. aeruginosa; mode of activity alone (conclusion) (P. aeruginosa strains; 21 P. aeruginosa strains): largely bacteriostatic; MBC Rep 1 (P. aeruginosa strains; strain N0047 (AR-BANK #103)): >2000 µg/mL; MIC Rep 1 (P. aeruginosa strains; strain N0047 (AR-BANK #103)): 250 µg/mL; MBC Rep 1 (P. aeruginosa strains; strain N0048 (ATCC 19143)): >2000 µg/mL; MIC Rep 1 (P. aeruginosa strains; strain N0048 (ATCC 19143)): 2000 µg/mL; MBC Rep 1 (P. aeruginosa strains; strain N0049 (PAK)): >2000 µg/mL; MIC Rep 1 (P. aeruginosa strains; strain N0049 (PAK)): 65 µg/mL; MBC Rep 1 (P. aeruginosa strains; strain N0050 (AR-BANK #0095)): >2000 µg/mL; MIC Rep 1 (P. aeruginosa strains; strain N0050 (AR-BANK #0095)): 250 µg/mL; MBC Rep 1 (P. aeruginosa strains; strain N0051 (AU32077)): >2000 µg/mL; MIC Rep 1 (P. aeruginosa strains; strain N0051 (AU32077)): 250 µg/mL; MIC Rep 1 (P. aeruginosa strains; strain N0052 (AU25834)): >2000 µg/mL; MBC Rep 1 (P. aeruginosa strains; strain N0053 (AU30524)): >2000 µg/mL; MIC Rep 1 (P. aeruginosa strains; strain N0053 (AU30524)): 250 µg/mL; MBC Rep 1 (P. aeruginosa strains; strain N0054 (AU26773)): >2000 µg/mL; MIC Rep 1 (P. aeruginosa strains; strain N0054 (AU26773)): 125 µg/mL; MBC Rep 1 (P. aeruginosa strains; strain N0055 (AU22725)): >2000 µg/mL; MIC Rep 1 (P. aeruginosa strains; strain N0055 (AU22725)): 62.5 µg/mL; MBC Rep 1 (P. aeruginosa strains; strain N0056 (AU22505)): >2000 µg/mL; MIC Rep 1 (P. aeruginosa strains; strain N0056 (AU22505)): 1000 µg/mL; MBC Rep 1 (P. aeruginosa strains; strain N0057 (AU35400)): >2000 µg/mL; MIC Rep 1 (P. aeruginosa strains; strain N0057 (AU35400)): 65 µg/mL; MBC Rep 1 (P. aeruginosa strains; strain N0058 (AU32543)): >2000 µg/mL; MIC Rep 1 (P. aeruginosa strains; strain N0058 (AU32543)): 500 µg/mL; MBC Rep 1 (P. aeruginosa strains; strain N0059 (AR-BANK #0054)): >2000 µg/mL; MIC Rep 1 (P. aeruginosa strains; strain N0059 (AR-BANK #0054)): 32.5 µg/mL; MBC Rep 1 (P. aeruginosa strains; strain N0069 (AR-BANK #0090)): >2000 µg/mL; MIC Rep 1 (P. aeruginosa strains; strain N0069 (AR-BANK #0090)): 125 µg/mL; MBC Rep 1 (P. aeruginosa strains; strain N0070 (AR-BANK #0092)): >2000 µg/mL; MIC Rep 1 (P. aeruginosa strains; strain N0070 (AR-BANK #0092)): 62.5 µg/mL; MBC Rep 1 (P. aeruginosa strains; strain N0071 (AR-BANK #0100)): >2000 µg/mL; MIC Rep 1 (P. aeruginosa strains; strain N0071 (AR-BANK #0100)): 125 µg/mL; MBC Rep 1 (P. aeruginosa strains; strain N0072 (AR-BANK #0105)): >2000 µg/mL; MIC Rep 1 (P. aeruginosa strains; strain N0072 (AR-BANK #0105)): 500 µg/mL; MBC Rep 1 (P. aeruginosa strains; strain N0079 (AR-BANK #0108)): >2000 µg/mL; MIC Rep 1 (P. aeruginosa strains; strain N0079 (AR-BANK #0108)): 125 µg/mL; MBC Rep 1 (P. aeruginosa strains; strain N0080 (AR-BANK #0110)): >2000 µg/mL; MIC Rep 1 (P. aeruginosa strains; strain N0080 (AR-BANK #0110)): 125 µg/mL; MBC Rep 1 (P. aeruginosa strains; strain N0081 (AR-BANK #0111)): >2000 µg/mL; MIC Rep 1 (P. aeruginosa strains; strain N0081 (AR-BANK #0111)): 250 µg/mL; MBC Rep 1 (P. aeruginosa strains; strain N0099 (ATCC 29260)): >2000 µg/mL; MIC Rep 1 (P. aeruginosa strains; strain N0099 (ATCC 29260)): 125 µg/mL; MIC GaCi (P. aeruginosa (PAK)): 65 µg/mL

With O=NN(O)N1C2CCC1c1ccccc12 [Entry 50] as the compound, how does the “fold more stable than monocyclic dimethyl-substituted pyrrolidine analog” value ([1]; vs entry 23) read?
The value was 8 fold.

Which “MBEC of Tobra” value (P. aeruginosa biofilms; [5]) does the source give for NC[C@H]1O[C@H](O[C@H]2[C@H](O)[C@@H](O[C@H]3O[C@H](CO)[C@@H](O)[C@H](N)[C@H]3O)[C@H](N)C[C@@H]2N)[C@H](N)C[C@@H]1O [Tobra, Tobramycin] here?
The value was 8 µg/mL and 4 µg/mL.

With O=[N+]([O-])[O-].O=[N+]([O-])[O-].O=[N+]([O-])[O-].[Ga+3] [Gallium nitrate, gallium nitrate, reference compound] as the compound, how does the “MBEC of Gallium nitrate” value (P. aeruginosa biofilms; [5]) read?
The value was over 16 mg/mL.

What about the “effectiveness against P. aeruginosa biofilms” value (P. aeruginosa biofilms; biofilms grown under aerobic conditions) of the same compound?
Its value is “is not”.

What about the “MIC Ga(NO3)3 alone” value (P. aeruginosa strain PAK) of the same compound?
The value was 65 µg/mL.

And the “MIC Ga(NO3)3 combo” value (P. aeruginosa strain PAK; in combination with BIOC76)?
Its value is 15 µg/mL.

For N[C@@H](CCN[C@@H](CCN1CC[C@H]1C(=O)O)C(=O)O)C(=O)O [Nicotianamine], which IC50 [2] is on record?
Its IC50 is 84 nM.

Which pKa [3] does the source give for C[C@@H]1CCC[C@H](C)N1C [N-methyl-cis-2,6-dimethylpiperidine] here?
The pKa was 9.35.

For C[C@@H]1CCC[C@H](C)N1N(O)N=O [Entry 22, 2,6 cis-dimethylpiperdine-NONOate], which “Max Flux” value [4] is on record?
The value was 4933 ppb/mg.

And the “NO Total” value [4]?
The value was 3.7 µmol/mg.

And the half-life ([4]; physiological condition (pH 7.40, 37° C.), buffer not named, pH 7.4, NO release)?
Its half-life is 1.3 h.

And the “rate of NO release, fold slower than unsubstituted piperidine” value ([1]; vs entry 19)?
The value was “over 60 fold”.

With CC(C)C[C@H](NC(=O)[C@@H]1CCCN1N(O)N=O)C(=O)NCC(N)=O [Entry 49] as the compound, how does the “diazeniumdiolate half-life, fold longer than unsubstituted pyrrolidine analog” value ([1]; vs entry 29) read?
Its value is 140 fold.

And the “diazeniumdiolate half-life, fold longer than proline carboxylate analog” value ([1]; vs entry 30)?
The value was “over 200 fold”.
